# According to patent US7135326B2, “UDP-glucosyltransferases” (E. I. du Pont de Nemours and Company, priority 2002, dated 2006):
# Tests used:
# [1] = target: T1, Grape (Vitis sp.) UDP-glucosyltransferase (Grape GT), wild type, SEQ ID NO:18 (Vitis vinifera, UniProt F6H660); experiment: Kinetic analysis of purified recombinant Grape GT (spectrophotometric assay at 304 nm); assay type: biochemical; conditions: saturated with pHBA; 25° C., pH 7.3, 10 mM UDP-glucose
# T1 construct: cell-free extract and purified recombinant protein
# T1 sequence (F6H660 1-478): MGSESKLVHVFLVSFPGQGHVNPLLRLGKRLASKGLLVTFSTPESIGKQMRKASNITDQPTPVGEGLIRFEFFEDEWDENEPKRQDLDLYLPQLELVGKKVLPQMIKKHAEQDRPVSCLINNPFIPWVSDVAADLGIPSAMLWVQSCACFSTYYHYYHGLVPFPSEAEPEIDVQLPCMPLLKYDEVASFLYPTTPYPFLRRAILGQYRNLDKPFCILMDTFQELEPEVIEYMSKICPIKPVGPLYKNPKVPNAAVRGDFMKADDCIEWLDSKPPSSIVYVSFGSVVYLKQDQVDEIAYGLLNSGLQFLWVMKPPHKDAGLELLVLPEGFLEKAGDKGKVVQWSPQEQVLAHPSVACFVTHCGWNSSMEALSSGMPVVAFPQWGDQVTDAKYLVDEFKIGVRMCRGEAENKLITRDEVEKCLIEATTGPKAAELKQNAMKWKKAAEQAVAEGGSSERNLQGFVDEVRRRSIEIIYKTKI
# Experimental: Turnover number for the present enzyme is determined according to principles well known in the art. […] Using the protein concentration as determined in μmols in the assay, one can determine how many μmols product are formed using 1.0 μmols enzyme in a fixed time period such as a second (i.e., how many times catalytic turnover occurred).
# Initial rates of product formation were measured at 25° C. over a wide range of substrate concentrations using the spectrophotometric assay (see Example 4).
# [2] = target: T1, Grape (Vitis sp.) UDP-glucosyltransferase (Grape GT), wild type, SEQ ID NO:18; experiment: Substrate inhibition of Grape GT in cell-free extract (initial rates, Table 2); assay type: biochemical; conditions: 10 mM pHBA; 25° C., pH 7.3, 10 mM UDP-glucose; data of Table 2
# Experimental: For protein production, the resulting recombinant strains were grown at 22° C. in 50 mL of LB media that contained kanamycin (50 μg/mL). At an A600 nm of ˜0.6, isopropyl-1-thio-β-D-galactopyranoside was added to a final concentration of 0.2 mM. Following a 22-h induction period at the same temperature, the cells were harvested by centrifugation and stored at −80° C. for subsequent manipulation as described below.
# The frozen cell pellets were resuspended in 1.0 mL of a solution containing 100 mM Tris-HCl (pH 7.7), 5 mM MgSO4, 1 mM dithiothreitol, 0.03 mg/mL DNAse I, 0.5 mM phenylmethanesulfonyl fluoride, and passed once through a French pressure cell at 20,000 psi. […] Protein concentrations were determined by the Bradford Method using bovine serum albumin as a standard.
# The second assay is based on the increase in absorbance at 368 nm that accompanies the formation of the glucose ester of sinapic acid. The experimental conditions were the same as those described above, but the test substrate was sinapic acid and product formation was calculated using an extinction coefficient of 5,570 M^−1 that was obtained with the authentic chemically synthesized compound under identical conditions. […]
# [3] = test system: Arabidopsis thaliana glucosyltransferase UGT84A1 (84A1, GT 3, SEQ ID NO:8); conditions: 20° C.; Lim et al. 2002; cited from earlier work
# [4] = test system: Arabidopsis thaliana UDP-glucosyltransferase 75B1; conditions: 20° C.; Lim et al. 2002; cited from earlier work
smiles,measurement,setting,value
"O=C(O)c1ccc(O)cc1 [pHBA, p-Hydroxybenzoic acid]",turnover number (kcat),[1],~10.9 s⁻¹
same,substrate inhibition (in words),[2],"little, if any, substrate inhibition"
same,turnover number with pHBA,[3],~0.21 sec^−1
same,turnover number (formation of the pHBA ester glucoside),[4],0.73 sec^−1
